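Grown in 96-well plates, cells were treated for 48 hours with each compound at five concentrations. Insufficient inhibition: endpoint recorded as highest concentration tested. The concentration for 50% growth inhibition is given as GI50. TGI is the concentration that stops growth completely.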
Assays:
Assay in all cases: NCI-60 cell line screen, 48 h
SK-MEL-2 melanoma = tested on: SK-MEL-2 melanoma
COLO 205 colon = tested on: COLO 205 colon
UO-31 renal = tested on: UO-31 renal
TK-10 renal = tested on: TK-10 renal
IGROV1 ovarian = tested on: IGROV1 ovarian
EKVX NSCLC = tested on: EKVX NSCLC
NCI-H23 lung = tested on: NCI-H23 lung
SK-MEL-28 melanoma = tested on: SK-MEL-28 melanoma
K-562 leukemia = tested on: K-562 leukemia
HT29 colon = tested on: HT29 colon

| SMILES | TGI (SK-MEL-2 melanoma) | TGI (COLO 205 colon) | TGI (UO-31 renal) | TGI (TK-10 renal) | TGI (IGROV1 ovarian) | TGI (EKVX NSCLC) | TGI (NCI-H23 lung) | TGI (SK-MEL-28 melanoma) | TGI (K-562 leukemia) | TGI (HT29 colon) | GI50 (SK-MEL-2 melanoma) | GI50 (COLO 205 colon) | GI50 (UO-31 renal) | GI50 (TK-10 renal) | GI50 (IGROV1 ovarian) | GI50 (EKVX NSCLC) | GI50 (NCI-H23 lung) | GI50 (SK-MEL-28 melanoma) | GI50 (K-562 leukemia) | GI50 (HT29 colon) |
| --- | --- | --- | --- | --- | --- | --- | --- | --- | --- | --- | --- | --- | --- | --- | --- | --- | --- | --- | --- | --- |
| O=C(CN1c2ccccc2Sc2ccccc21)n1cnc2ccccc21 | > 100 µM | > 100 µM | > 100 µM | > 100 µM | > 100 µM | > 100 µM | > 100 µM | > 100 µM | > 100 µM | > 100 µM |  |  |  |  |  |  |  |  |  |  |
| COc1cc2c(cc1OCCCN1CCN(CCCOc3cc4c(cc3OC)C(=O)C3CCC[C@H]3C=N4)CC1)N=C[C@@H]1CCCC1C2=O (stereo not given in full) | 4.8 µM | > 75.4 µM | > 51.3 µM | > 100 µM | > 23.6 µM | > 100 µM | 14.1 µM | > 100 µM | > 100 µM | > 68.8 µM | 1.71 µM | 9.29 µM | 17.1 µM | 7.9 µM | 3.27 µM | 34.2 µM | 5.42 µM | 32.9 µM | 2.09 µM | 23.3 µM |
| COc1ccc(C=O)c(N(C)C(=O)C(C)(C)C)c1 | > 100 µM | > 100 µM | > 100 µM | > 100 µM | > 100 µM | > 100 µM | > 100 µM | > 100 µM | > 100 µM | > 100 µM |  |  |  |  |  |  |  |  |  |  |
| C[CH2][Sn]([CH2]C)([O]C(=O)c1cc(OC)c(OC)c(OC)c1)[O][Sn]([CH2]C)([CH2]C)[O]C(=O)c1cc(OC)c(OC)c(OC)c1 | 35.3 µM | 43.6 µM | > 100 µM | 33.6 µM | > 100 µM | > 94.8 µM | 36.5 µM | 33.4 µM | > 64.9 µM | > 100 µM | 16.3 µM | 20.3 µM | > 100 µM | 18.9 µM | > 100 µM | > 53.9 µM | 16.7 µM | 18.4 µM | 20.9 µM | 48.1 µM |
| CCOc1ccc(NC(=O)/C(=C/c2ccccc2)C(C)=O)cc1 | 26.4 µM | 33.1 µM | 21.6 µM | 32.9 µM | 29.1 µM | 35.4 µM | 24.8 µM | 26 µM | 41.4 µM | 33.3 µM |  |  |  |  |  |  |  |  |  |  |
| c1ccc(COc2ccc(Nc3ncnc4ccc(-c5ccco5)cc34)cc2)cc1 | 24.6 µM | 17.7 µM | > 22.1 µM | 16.3 µM | > 23.1 µM | > 25 µM | > 17.9 µM | > 25 µM | > 25 µM | 16.1 µM | 9.68 µM | 7.14 µM | 4.76 µM | 3.26 µM | 7.11 µM | 1.81 µM | 5.54 µM | 9.51 µM | 9.74 µM | 4.52 µM |
| Cn1cccc1C1CC(=O)N(CCC[Se]C#N)C1=O (stereo not given) | 5.31 µM | 4.88 µM | 3.29 µM | 4.06 µM | 4.68 µM | 4.46 µM | 7.88 µM | 5.96 µM | 29.9 µM | 28.6 µM | 2.13 µM | 2.1 µM | 1.57 µM | 1.79 µM | 1.86 µM | 1.93 µM | 2.6 µM | 2.24 µM | 3.2 µM | 2.72 µM |
| CCN(CC)c1ccc(/C=C/C2=[N+](C)c3ccccc3C2(C)C)cc1 | > 35.9 µM | 0.392 µM | 18.1 µM | 10.6 µM | > 85.6 µM | 14 µM | 25.8 µM | 9.48 µM | > 100 µM | > 40.5 µM | 0.487 µM | 0.161 µM | 3.26 µM | 0.373 µM | 0.709 µM | 0.235 µM | 0.181 µM | 0.61 µM | 3.44 µM | 0.148 µM |
| CC(=O)C(CN1CCOCC1)C(c1ccccc1)c1c(O)c2ccccc2oc1=O (stereo not given) | > 100 µM | > 100 µM | > 100 µM | > 100 µM | > 100 µM | > 100 µM | > 100 µM | > 100 µM | > 100 µM | > 100 µM |  |  |  |  |  |  |  |  |  |  |
| O=C(Nc1ccc(Cl)cc1)C(=O)C1=C(O)c2ccccc2OC1 | > 100 µM | > 100 µM | > 100 µM | > 100 µM | > 100 µM | > 100 µM | > 100 µM | > 100 µM | > 100 µM | > 100 µM |  |  |  |  |  |  |  |  |  |  |
| COC(=O)[C@@]12C3=NO[C@]1(C(=O)OC)C(O[Si](C)(C)C(C)(C)C)C1OC(C)(C)OC1[C@@H]2[C@@H](OCc1ccccc1)CC3 (stereo not given in full) | > 100 µM | > 100 µM | > 100 µM | > 100 µM | > 100 µM | > 100 µM | > 100 µM | > 100 µM | > 100 µM | > 100 µM |  |  |  |  |  |  |  |  |  |  |
| Cc1ccc(NC(=O)CCC(=O)C2CC(=O)CCC2=O)cc1C (stereo not given) | > 100 µM | > 100 µM | > 100 µM | > 100 µM | > 100 µM | > 100 µM | > 100 µM | > 100 µM | > 100 µM | > 100 µM |  |  |  |  |  |  |  |  |  |  |
| COC(=O)C1(c2ccc(OC)cc2)NC(c2ccccc2)C2C(=O)N(c3ccc(OC)cc3)C(=O)C21 (stereo not given) | > 100 µM | > 100 µM | > 100 µM | > 100 µM | > 100 µM | > 100 µM | > 100 µM | > 100 µM | > 100 µM | > 100 µM |  |  |  |  |  |  |  |  |  |  |
| CCOC(=O)C12CN(C34CC5CC(CC(C5)C3)C4)CC(C(=O)OCC)(C1=O)C(c1ccccc1)OC2c1ccccc1 (stereo not given) | > 100 µM | > 100 µM | > 100 µM | > 100 µM | > 100 µM | > 100 µM | > 100 µM | > 100 µM | > 100 µM | > 100 µM |  |  |  |  |  |  |  |  |  |  |
| C=C1C(=O)C23C(O)C1CCC2C12CO[C@]3(O)[C@@H](O)C1C(C)(C)CCC2O (stereo not given in full) | 30.2 µM | 7.87 µM | 31.1 µM | 34.3 µM | 20.3 µM | 28.9 µM | 43.4 µM | 11.4 µM | > 100 µM | 30.3 µM |  |  |  |  |  |  |  |  |  |  |
| COc1cc(-c2cn(-c3ccc(Cl)cc3)c(=O)n2-c2ccccc2)cc(OC)c1OC | > 100 µM | > 100 µM | > 100 µM | > 100 µM | > 69.2 µM | > 100 µM | > 100 µM | > 100 µM | > 100 µM | > 100 µM | > 25.9 µM | 51 µM | 89.3 µM | > 100 µM | 30.6 µM | > 100 µM | > 100 µM | 56.4 µM | > 100 µM | 56.3 µM |
| OCCC#Cc1ccccc1C#Cc1ccccc1 | > 100 µM | 38 µM | > 100 µM | 23.4 µM | > 100 µM | 24.3 µM | 39.9 µM | 60.9 µM | > 100 µM | > 100 µM | 40.6 µM | 19.4 µM | 34.3 µM | 11.3 µM | 33.4 µM | 11.3 µM | 18.2 µM | 21.7 µM | 11 µM | 18 µM |
| COc1ccc(C(=O)Nc2ccccc2)cc1[N+](=O)[O-] | > 100 µM | > 100 µM | > 100 µM | > 100 µM | > 100 µM | > 100 µM | > 100 µM | > 100 µM | > 100 µM | > 100 µM |  |  |  |  |  |  |  |  |  |  |
| Fc1cccc(C=NC23CC4CC(CC(C4)C2)C3)c1 | > 100 µM | > 100 µM | > 100 µM | > 100 µM | > 100 µM | > 100 µM | > 100 µM | > 100 µM | > 100 µM | > 100 µM |  |  |  |  |  |  |  |  |  |  |
| COc1cc2nc(-c3ccc(Cl)cc3)cc(OCCCN3CCC(O)CC3)c2cc1OC | 5.05 µM | 4.11 µM | 5.97 µM | 6.75 µM | 14.9 µM | 12.9 µM | 15 µM | 3.28 µM | 6.75 µM | 3.81 µM | 2.07 µM | 0.532 µM | 1.72 µM | 2.14 µM | 0.923 µM | 1.33 µM | 2.83 µM | 1.49 µM | 1.63 µM | 0.7 µM |
| Cn1cc(-c2ccc3c(c2)ncn3-c2ccc(CC(=O)Nc3cc(C(C)(C)C)on3)cc2)cn1 | 5.14 µM | 5.24 µM | 2.2 µM | 3.17 µM | 1.31 µM | 31.1 µM | 17.2 µM | > 100 µM | > 100 µM | > 36.7 µM | 1.99 µM | 1.95 µM | 0.224 µM | 0.671 µM | 0.235 µM | 1.75 µM | 1.88 µM | 2.65 µM | 0.0284 µM | 2.6 µM |
| Cn1c(=O)c2c(nc3n2C(CCl)CO3)n(C)c1=O (stereo not given) | > 100 µM | > 100 µM | > 100 µM | > 100 µM | > 100 µM | > 100 µM | > 100 µM | > 100 µM | > 100 µM | > 100 µM |  |  |  |  |  |  |  |  |  |  |
| C/C=C(\C)C(=O)O[C@@H]1C=CC(=O)O[C@H]1COC(=O)[C@H](C)O | 68.6 µM | 23.7 µM | 27.5 µM | 25.8 µM | 24.6 µM | 42.1 µM | 50.6 µM | 27.9 µM | > 100 µM | 20.9 µM | 17.5 µM | 6.57 µM | 12.7 µM | 13 µM | 7.46 µM | 19 µM | 18.4 µM | 12.4 µM | 5.21 µM | 5.93 µM |
| CC1=C(C(=O)Nc2cc(F)c(F)cc2F)C(c2cccc([N+](=O)[O-])c2)C(C(=O)Nc2ccccc2C(F)(F)F)=C(C)N1 (stereo not given) | 42.1 µM | > 100 µM | 42 µM | 71.5 µM | > 100 µM | 77.1 µM | 46.5 µM | 62.2 µM | 36.7 µM | 62.8 µM |  |  |  |  |  |  |  |  |  |  |
| COC(=O)C1(C)CCc2c(ccc3ccccc23)C1=O (stereo not given) | 64.8 µM | 42.2 µM | > 100 µM | 95.7 µM | 95.7 µM | > 100 µM | > 100 µM | > 100 µM | > 100 µM | > 100 µM |  |  |  |  |  |  |  |  |  |  |
| COC(=O)C12C3C=CC(O3)C1C1C=CC2O1 (stereo not given) | > 100 µM | > 100 µM | > 100 µM | > 100 µM | > 100 µM | > 100 µM | > 100 µM | > 100 µM | > 100 µM | > 100 µM |  |  |  |  |  |  |  |  |  |  |

Reference: PubChem BioAssay (NCI)
